Test results from US20140322076A1, “ANTIMICROBIAL COMPOSITION” (priority 2011, published 2014).

Key:
Assay type in all cases: cell-based
[1] = system: Escherichia coli (E. coli - ATCC #10536); test: Automated assessment of efficacy in surfactant base (Example 4); conditions: for MBC: in 2.85% sodium cocoyl glycinate + 1.85% sodium lauroamphoacetate solution at pH 10; for 15 second bactericidal efficacy (in words): in combination with alpha-terpineol at concentrations lower than their MBC, surfactant formulation
Description: In these examples, the efficacy of combinations of isopropylmethylphenols and terpineol were tested in a surfactant cleansing formulation comprising 2.85% sodium cocoyl glycinate and 1.85% sodium lauroamphoacetate. This corresponds to a 50% in use dilution with water of a typical neat formulation containing 5.7% cocoyl glycinate and 3.7% % sodium lauroamphoacetate during hand washing. Solutions were prepared such that the concentrations of the surfactant components and test actives were 1.1 times the final desired concentration in order to allow for dilution with the bacterial inoculum in the test. The solutions were manually adjusted to pH 10.0 by dropwise addition of sodium hydroxide solution, as measured with a pH meter at ambient temperature. Solutions of the isopropylmethylphenols and/or terpineols were prepared at a maximum of 24 hours before testing. The same terpineol was used as in Example 1.
The efficacy of the combinations of the present invention was determined against the same bacterium as in Example 1, Escherichia coli (E. coli—ATCC #10536), at a concentration of approximately 1×10^8 bacteria per mL.
Tests were conducted using standard microtiter plate assays using an automated liquid handling system. 270 μl of the surfactant test solution was pipetted into each well of the microtitre plate (Nunc F Gamma Irradiated 96F untreated microtitre plates of clear polystyrene) and 30 μl of the bacterial suspension was then added. After exactly 15 seconds of bacterial exposure, a 30 μl volume of bacterial cells was withdrawn and transferred to 270 μl of D/E quench solution. After 5 minutes in the D/E quench, the optical density (OD) was measured for each plate in turn at two specific wavelengths (450 nm and 590 nm). These provide a dual check of antimicrobial activity, as the OD450 reading is specific for the yellow colour of D/E quench when bacterial growth is observed, whereas OD590 is specific for the initial purple colour of the D/E quench which is retained if no bacterial growth is observed. After the time zero OD measurements, plates were then incubated at 37° C. overnight (16 hours) before repeating the OD measurements. Delta OD values were calculated by subtracting […] at time=16 hours.
Bacterial growth is observed as an increase in OD450 and a decrease in OD590. To identify antibacterially efficacious systems (those preventing appreciable bacterial growth after incubation), the following threshold changes in OD readings have been adopted: if (1). OD450 increases by less than 0.2 absorbance unit (AU) on incubation and (2). OD590 decreases by less than 0.35 AU on incubation. Conversely, where OD450 increases by more than 0.1 AU and OD590 decreases by more than 0.1 AU after incubation, corresponding to a colour shift from purple to yellow, the test system allows bacterial growth and is not deemed efficacious. Four replicate measurements in the same plate have been made for each test system. The number of replicate wells showing either bacterial growth or no growth is also readily assessed by eye by following the colour change. Thymol and terpineol were tested both alone and in combination for comparison purposes.
In each case, binary mixtures were assessed in the weight to weight ratio isopropylmethylphenol to alpha terpineol of 1:2.5.

[2] = system: Escherichia coli (10536 strain); test: Antimicrobial efficacy, 15 seconds contact suspension assay (Examples 1 and 3); conditions: for MBC (Minimum Biocidal Concentration): lowest concentration with complete kill after 15 seconds contact, active alone, upper boundary to the MBC; for NMBS: Example 3, gamma-terpineol, contact time 15 seconds, concentrations (% w/v) as given per example
Description: The efficacies of antimicrobial agents can be usefully compared by determining the Minimum Biocidal Concentration (MBC). The MBC is defined as the lowest absolute concentration of the particular active that provides complete kill (zero bacterial growth).
ΣFBC=FBC(component 1)+FBC(component 2)+FBC(component 3)+ . . . etc
such that • ΣFBC≧1 corresponds to additive or antagonistic bactericidal activity • ΣFBC<1 corresponds to synergistic bactericidal activity
Antimicrobial efficacy is tested against a representative pathogenic bacterial organism, Gram negative Escherichia coli. Concentrations of actives are expressed in terms of the percentage weight/volume (% w/v) throughout Example 1.
An overnight culture of Escherichia coli (10536 strain) was prepared in 50 ml total volume of TSB broth, grown for ca. 18 hrs at 37° C. and shaken at 150 rpm. 1 ml of this overnight E. coli culture was transferred to 50 ml of fresh TSB broth and incubated at 37° C. at 150 rpm for ca. 4 hours. This culture was separated into equal volumes and centrifuged at 4000 rpm for 15 minutes, washed with sterile saline (0.85% NaCl), centrifuged once more and re-suspended in saline to give a final concentration of 0.8 OD620 equivalent to about 10^8 cells per millilitre for this particular organism. Here, OD620 indicates the absorbance of a sample in a cuvette of 1.0 cm path length at a wavelength of 620 nm. This bacterial stock was used for assaying against antimicrobial actives (in triplicate).
The following assay describes the testing of 8 materials using 6 dilutions across half of a 96-well micro titre plate (MTP). Using this approach it is possible to assay 16 actives (without replicates) with one full dilution plate, replicating this set up in two halves of the plate columns, 1-6 and 7-12.
1M solutions of the test actives were prepared in dimethylsulphoxide (DMSO).
Aliquots (270 μl) of the materials at 1.11 times the final concentration were dispensed into the wells of the MTP along one column (A1-H1). This MTP was labelled as the “Screening plate”.
In another MTP, labelled as the “Dilution plate”, 270 μl of D/E neutralising solution from DIFCO Composition was added to column 1. The composition of the neutralising solution was as follows: pancreatic digest of casein, 5.0 g/L; Yeast Extract, 2.5 g/L; Dextrose, 10 g/L, sodium thioglycollate, 1.0 g/L, sodium thiosulphate, 6.0 g/L; sodium bisulphite, 2.5 g/L; Polysorbate 80, 5.0 g/L; lecithin 7.0 g/L; bromocresol purple, 0.02 g/L with a pH in the range 7.6±0.2.
270 μl of tryptone diluent solution was added to all the remaining wells of the Dilution MTP (columns 2-6).
Bacterial stock (30 μl) was then added to the prepared 270 μl of the solution of actives in the Screening Plate and mixed, using a multichannel pipette with 8 tips to aspirate and dispense the same volume of bacterial stock in parallel to 8 wells in rows A-H. After a contact time of 15 seconds, the mixtures were quenched by transferring 30 μl volumes of the mixtures into the 270 μl D/E neutralising solution in the prepared dilution plate, using aspiration to mix. After exactly 5 minutes in the D/E neutralising solution, 30 μl volumes were transferred from column 1 to column 2 of the Dilution MTP and mixed, before transferring further 30 μl volumes from column 2 into column 3. This process was repeated serially diluting the bacteria across the plate to column 6.
30 μl volumes from each well in the Dilution MTP were transferred onto pre-labelled segment of Tryptone Soya Agar (TSA) plates starting from the lowest bacterial concentration (highest dilution, column 6) to the highest bacterial concentration (column 1). The TSA plates were allowed to stand for ca. 2 hours so that the 30 μl inocula spots could dry and the plates were then inverted and incubated overnight at 37° C. before enumerating the bacterial colonies at the labelled dilutions to determine the effects of the actives on bacterial growth.

[3] = system: Escherichia coli (E. coli - ATCC #10536); test: High resolution MBC synergy assay in phosphate buffer containing 35% dipropylene glycol (Example 2); conditions: for ΣFBC: calculated from Ca/MBCA + Cb/MBCB; for MBC of the component alone (MBCA, MBCB): complete kill in 15 seconds, phosphate buffer, 35% DPG
Description: The materials were sourced in the same way as for Example 1. Synergy tests were conducted using standard microtiter plate assays with phosphate buffer containing 35% dipropylene glycol (DPG). […] The MBC plate was inoculated one column at a time with the test microorganism. An aliquot of the inoculated well was transferred at 15 seconds to a plate containing a neutralizing agent (D/E Neutralizing Broth), mixed and held for 5 minutes before being transferred to a growth plate containing trypticase soy broth (TSB). The TSB plate was incubated at 37° C. and read for the presence/absence of growth at 24 hours. […] This microorganism is representative of natural contaminants in many consumer and industrial applications.

| Compound | MBC [1] [% w/v] | MBC (Minimum Biocidal Concentration) [2] [% w/v] | NMBS [2] [log CFU/ml] | other results |
| --- | --- | --- | --- | --- |
| Cc1cc(O)cc(C(C)C)c1 [3-isopropyl-5-methylphenol] | >0.2 | 0.05 | – | 15 second bactericidal efficacy (in words) [1]: complete kill in all 4 replicates; ΣFBC [3]: 1.00; MBC of the component alone (MBCA, MBCB) [3]: 0.5 weight % |
| CC(C)=C1CCC(C)(O)CC1 (stereo not shown) [3:4, gamma-terpineol] | – | – | 7.84 | – |
| Cc1cc(O)ccc1C(C)C [3:5, 4-isopropyl-3-methylphenol] | – | – | 4.98 | – |
| Cc1cc(O)ccc1C(C)C [3:6, 4-isopropyl-3-methylphenol] | – | – | 7.78 | – |
| Cc1cc(O)ccc1C(C)C [3:7, 4-isopropyl-3-methylphenol] | – | – | 7.79 | – |
| Cc1cc(O)ccc1C(C)C [4-isopropyl-3-methylphenol] | >0.2 | 0.075 | – | 15 second bactericidal efficacy (in words) [1]: complete kill in all 4 replicates |
| CC1=CCC(C(C)(C)O)CC1 (stereo not drawn) [alpha-terpineol] | >0.5 | – | – | reduction of the terpineol concentration required for complete kill ([2]; 0.4% alone to […] in combination with […] w/v 4-isopropyl-3-methylphenol or 3-isopropyl-5-methylphenol): 2.7 fold; ΣFBC [3]: 1.00; MBC of the component alone (MBCA, MBCB) [3]: 0.6 weight % |
| CC(C)=C1CCC(C)(O)CC1 (stereo not shown) [gamma-terpineol] | – | 0.3 | – | – |
| Cc1ccc(C(C)C)c(O)c1 [thymol, thymol (2-isopropyl-5-methylphenol)] | >0.2 | 0.05 | – | – |
